The values that follow come from paper PMC4508619 (Scientific Reports, 2015).

Each structure is given as a SMILES string. “Also recorded” adds a separate entry of the source.

Holding throughout (format): cell-based
The target in experiment [1] is T1, rTRPV1 concatemer 2wt/2ya (two Y511A subunits) (Rattus norvegicus, UniProt O35433, Y511A).
T1 construct: expressed in transfected cells; host or cells: HEK293T, transient, pCDNA3.1+
Put plainly: Whole-cell patch-clamp, HEK293T cells expressing 2wt/2ya concatemer. The settings on record: −40 mV. The method, then: (§1) Next, we determined the concentration-response relationship of the various concatemeric constructs, using the whole-cell configuration of the patch clamp at holding voltage of −40 mV.
(§2) Patch clamp experiments were executed using HEK293T cells in the whole cell or outside-out configuration 24 hrs after transfection, as previously described. 30,000 cells were plated on glass coverslips (12 mm) coated with relevant amounts of poly-D-Lysine (PDL; Sigma-Aldrich, MO, USA) and/or Matrigel (BD-biosciences, MA, USA) according to the configuration (see below). […] Recordings were performed using Axopatch 200B patch clamp amplifier (Molecular Devices, CA, USA), and data was collected and analyzed using pClamp 10.2 software (Molecular Devices, CA, USA). […]
(§3) HEK293T cells were plated on coverslips pre-coated with 0.05 mg/ml poly-D-Lysine (PDL; Sigma-Aldrich, MO, USA) and 1 μg/ml Matrigel (BD-biosciences, Bedford, MA, USA) three hrs prior to recordings. […] To avoid potential voltage errors due to receptor overexpression, dose responses were recorded at −40 mV, with the maximal current limited to ~2.5 nA. […] Proton response recordings were performed with 50 μM Amiloride in the bath solution (Sigma-Aldrich, MO, USA) in order to block natively expressed ASICs[43].
(§4) Dose response curves were calculated by SigmaPlot software (San Jose, CA) using the sigmoidal Hill equation as follows: […]

Experiment [2] addresses T2, concatemeric rTRPV1 (4wt) (Rattus norvegicus, UniProt O35433). Put plainly: Single-channel outside-out patch recording, Flp-in TREX HEK293 cells, 4wt. More on the design: expressed in transfected cells; host or cells: HEK293T, transient, pCDNA3.1+. The source says:
(§5) In order to facilitate recording from a single channel, we used an inducible system, Flp-in TREX, which allows doxycycline-controlled construct expression levels. […] The membrane potential was held at +60 mV considering that the conductance of TRPV1 receptor channels is higher at positive potentials. The pipette contained standard intracellular patch solution, and the patch of membrane was continuously perfused with standard extracellular solution.
(§6) Briefly, cells were co-transfected (performed as described above) with pcDNA5/FRT/TO containing the gene of interest and the Flp-recombinase expression vector pOG44 into the Flp-In host cell line (Invitrogen, MA, USA) at a ratio of 1:9, respectively, as previously described.
(§7) Patch clamp experiments were executed using HEK293T cells in the whole cell or outside-out configuration 24 hrs after transfection, as previously described. 30,000 cells were plated on glass coverslips (12 mm) coated with relevant amounts of poly-D-Lysine (PDL; Sigma-Aldrich, MO, USA) and/or Matrigel (BD-biosciences, MA, USA) according to the configuration (see below). Patch electrodes were fabricated from borosilicate glass using the P1000 Micropipette Puller (Sutter Instrument, CA, USA) and fire-polished using the microforge MF-900 (Narishige, Tokyo, Japan). Electrodes were coated with Sylgard (World Precision Instrument, FL, USA) to reduce the capacity of the recording pipette and to improve noise characteristics. […] Recordings were performed using Axopatch 200B patch clamp amplifier (Molecular Devices, CA, USA), and data was collected and analyzed using pClamp 10.2 software (Molecular Devices, CA, USA). All experiments were carried out at room temperature.
Single-channel currents were recorded in the outside-out patch configuration of the patch-clamp technique, as previously described. All single-channel recordings were done using the stable cell line Flp-in TREX 293 cells. Cells were plated on coverslips coated with 0.2 mg/ml PDL one hour prior induction. Doxycycline concentration and induction times for obtaining a membrane patches with a single channel were determined for each construct. Generally, 0.3–1 μg/ml doxycycline was used for 2–4 hrs prior to recordings. Patch electrodes were fire-polished to a resistance of 10–15 MΩ. The pipette solution contained (mM): 130 KCl, 4 NaCl, 2 MgSO4, 0.5 CaCl2, 1 EGTA and 10 HEPES adjusted to pH 7.2 with KOH. Single-channel currents were low-pass filtered at 5 kHz and digitized at 50 kHz. Occasional large brief noise spikes were visually identified and removed from the current traces. Single-channel recordings were analyzed with the pCLAMP 10.2 program Clampfit (Axon Instruments, USA), as previously described. For each concatemeric construct, 150–2000 events were collected from each of 3–5 separate patches. […]

The target of experiment [3] is T2, concatemeric rTRPV1 (4wt). Put plainly: Whole-cell patch-clamp, HEK293T cells expressing tetrameric concatemer 4wt. Also noted: expressed in transfected cells; host or cells: HEK293T, transient, pCDNA3.1+. The method, then:
(§8) The current-voltage relationship was determined using whole-cell patch-clamp recordings.
as §1, §2
(§9) HEK293T cells were plated on coverslips pre-coated with 0.05 mg/ml poly-D-Lysine (PDL; Sigma-Aldrich, MO, USA) and 1 μg/ml Matrigel (BD-biosciences, Bedford, MA, USA) three hrs prior to recordings. […] To avoid potential voltage errors due to receptor overexpression, dose responses were recorded at −40 mV, with the maximal current limited to ~2.5 nA. […] Proton response recordings were performed with 50 μM Amiloride in the bath solution (Sigma-Aldrich, MO, USA) in order to block natively expressed ASICs[43]. […]
Background: Patch clamp records ionic current or voltage across a cell membrane.

In experiment [4] the target is T2, concatemeric rTRPV1 (4wt). Kind of experiment: Two electrode voltage clamp, Xenopus laevis oocytes expressing 4wt concatemer. The settings on record: capsaicin, TEVC. The method, then: as §8
(§10) Stage V–VI Xenopus laevis oocytes were prepared as previously described. Oocytes were injected up to 24 hr after isolation with a total of 5 ng cRNA, and assayed 5–10 days later. Two electrode voltage-clamp recordings were carried out at RT using GeneClamp 500 connected to digidata1322A and pCLAMP 8.2 (Molecular Devices, CA, USA). Electrodes (Sutter Instruments, CA, USA) were filled with 3 M KCl and had resistance of 0.5–1 MΩ. Oocytes were continuously perfused with normal frog ringer (NFR) solution without calcium containing (mM): 115 NaCl, 2.5 KCl, 2 […], and 10 HEPES, pH 7.4 with NaOH.
For orientation: In two-electrode clamp one electrode senses voltage and the other passes current.

The target in experiment [5] is T3, rTRPV1 concatemer 4ya (Y511A in all subunits) (Rattus norvegicus, UniProt O35433, Y511A).
T3 construct: expressed in transfected cells; host or cells: HEK293T, transient, pCDNA3.1+
Kind of experiment: Whole-cell patch-clamp, HEK293T cells expressing 4ya concatemer. The settings on record: capsaicin 100 μM, whole-cell voltage ramps −80 to +80 mV. The method, then:
as §7, with “Japan).” for “Japan). Electrodes were coated with Sylgard (World Precision Instrument, FL, USA) to reduce the capacity of the recording pipette and to improve noise characteristics.”, “All experiments were carried out at room temperature.” left out
as §3

The next experiment addresses T4, rTRPV1 concatemer wt/3ya (Rattus norvegicus, UniProt O35433, Y511A).
T4 construct: expressed in transfected cells
Kind of experiment: Single-channel outside-out patch recording, Flp-in TREX HEK293 cells, wt/3ya. The settings on record: for single-channel average amplitude, wt/3ya / unitary conductance, wt/3ya: +60 mV, outside-out.
Excerpt: as §5, §6, §7
Single-channel currents were recorded in the outside-out patch configuration of the patch-clamp technique, as previously described. All single-channel recordings were done using the stable cell line Flp-in TREX 293 cells. Cells were plated on coverslips coated with 0.2 mg/ml PDL one hour prior induction. Doxycycline concentration and induction times for obtaining a membrane patches with a single channel were determined for each construct. Generally, 0.3–1 μg/ml doxycycline was used for 2–4 hrs prior to recordings. Patch electrodes were fire-polished to a resistance of 10–15 MΩ. The pipette solution contained (mM): 130 KCl, 4 NaCl, 2 MgSO4, 0.5 CaCl2, 1 EGTA and 10 HEPES adjusted to pH 7.2 with KOH. Single-channel currents were low-pass filtered at 5 kHz and digitized at 50 kHz. Occasional large brief noise spikes were visually identified and removed from the current traces. Single-channel recordings were analyzed with the pCLAMP 10.2 program Clampfit (Axon Instruments, USA), as previously described. For each concatemeric construct, 150–2000 events were collected from each of 3–5 separate patches. To determine channel amplitude, all-point amplitude histograms were created using data digitally filtered at 2 kHz. To determine channel open probability, traces filtered at 5 kHz were idealized using the half-amplitude threshold crossing method (pCLAMP 10.2)[38].

The target in experiment [6] is T5, rTRPV1 concatemer 3wt/ya (one Y511A subunit) (Rattus norvegicus, UniProt O35433, Y511A).
T5 construct: expressed in transfected cells; host or cells: HEK293T, transient, pCDNA3.1+
Put plainly: Whole-cell patch-clamp, HEK293T cells expressing 3wt/ya concatemer. The settings on record: −40 mV. The method, then:
as §1, §2, §3, §4

The target of experiment [7] is T6, rTRPV1 (wt) (Rattus norvegicus, UniProt O35433). Kind of experiment: Two electrode voltage clamp, Xenopus laevis oocytes expressing wt rTRPV1. The settings on record: capsaicin, TEVC. The method, then:
as §8, §10

Experiment [8] concerns the target T6, rTRPV1 (wt). Put plainly: Whole-cell patch-clamp, HEK293T cells transiently expressing wt rTRPV1. More on the design: expressed in transfected cells; host or cells: HEK293T, transient, pCDNA3.1+. The method, then:
as §8
as §7, with “Japan).” for “Japan). Electrodes were coated with Sylgard (World Precision Instrument, FL, USA) to reduce the capacity of the recording pipette and to improve noise characteristics.”, “All experiments were carried out at room temperature.” left out
as §9

The target of experiment [9] is T7, rTRPV1 concatemer wt/3ya (three Y511A subunits) (Rattus norvegicus, UniProt O35433, Y511A).
T7 construct: expressed in transfected cells; host or cells: HEK293T, transient, pCDNA3.1+
Put plainly: Whole-cell patch-clamp, HEK293T cells expressing wt/3ya concatemer. The method, then:
as §1, §2, §3, §4

Experiment [10] deals with T8, rTRPV1 concatemer 4qa (E600Q/E648A in all subunits) (Rattus norvegicus, UniProt O35433, E600Q/E648A).
T8 construct: expressed in transfected cells; host or cells: HEK293T, transient, pCDNA3.1+
Put plainly: Whole-cell patch-clamp, HEK293T cells expressing 4qa concatemer. The settings on record: capsaicin 1 μM, −40 mV. The method, then:
as §7, with “Japan).” for “Japan). Electrodes were coated with Sylgard (World Precision Instrument, FL, USA) to reduce the capacity of the recording pipette and to improve noise characteristics.”, “All experiments were carried out at room temperature.” left out
as §3

Setting [11] is: 2 μM capsaicin, +60 mV, outside-out.

T2 sequence (O35433 whole entry, the tested form may be a part): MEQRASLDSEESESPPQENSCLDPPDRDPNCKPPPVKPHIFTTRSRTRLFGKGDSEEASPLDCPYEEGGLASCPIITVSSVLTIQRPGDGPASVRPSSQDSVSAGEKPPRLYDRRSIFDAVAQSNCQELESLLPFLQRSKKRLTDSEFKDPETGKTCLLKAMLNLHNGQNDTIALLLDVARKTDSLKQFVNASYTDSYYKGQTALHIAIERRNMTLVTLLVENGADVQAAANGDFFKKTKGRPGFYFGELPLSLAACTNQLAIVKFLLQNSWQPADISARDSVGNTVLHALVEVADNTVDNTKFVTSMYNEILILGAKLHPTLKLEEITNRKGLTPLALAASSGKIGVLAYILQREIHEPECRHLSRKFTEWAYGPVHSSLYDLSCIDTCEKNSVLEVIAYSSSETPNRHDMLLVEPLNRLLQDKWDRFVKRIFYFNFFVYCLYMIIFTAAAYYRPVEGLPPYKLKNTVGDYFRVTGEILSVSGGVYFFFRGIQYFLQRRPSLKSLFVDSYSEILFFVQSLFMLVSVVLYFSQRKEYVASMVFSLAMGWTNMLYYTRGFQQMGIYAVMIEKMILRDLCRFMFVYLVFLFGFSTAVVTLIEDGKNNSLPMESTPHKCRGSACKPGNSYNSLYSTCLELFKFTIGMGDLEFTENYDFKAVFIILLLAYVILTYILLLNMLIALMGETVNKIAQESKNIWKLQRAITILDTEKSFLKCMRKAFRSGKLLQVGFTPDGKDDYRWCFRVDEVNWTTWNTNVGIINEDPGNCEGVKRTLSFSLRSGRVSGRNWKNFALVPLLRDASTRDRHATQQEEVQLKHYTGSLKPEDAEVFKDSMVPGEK
T2 sequence (O35433 2-838 limits assumed): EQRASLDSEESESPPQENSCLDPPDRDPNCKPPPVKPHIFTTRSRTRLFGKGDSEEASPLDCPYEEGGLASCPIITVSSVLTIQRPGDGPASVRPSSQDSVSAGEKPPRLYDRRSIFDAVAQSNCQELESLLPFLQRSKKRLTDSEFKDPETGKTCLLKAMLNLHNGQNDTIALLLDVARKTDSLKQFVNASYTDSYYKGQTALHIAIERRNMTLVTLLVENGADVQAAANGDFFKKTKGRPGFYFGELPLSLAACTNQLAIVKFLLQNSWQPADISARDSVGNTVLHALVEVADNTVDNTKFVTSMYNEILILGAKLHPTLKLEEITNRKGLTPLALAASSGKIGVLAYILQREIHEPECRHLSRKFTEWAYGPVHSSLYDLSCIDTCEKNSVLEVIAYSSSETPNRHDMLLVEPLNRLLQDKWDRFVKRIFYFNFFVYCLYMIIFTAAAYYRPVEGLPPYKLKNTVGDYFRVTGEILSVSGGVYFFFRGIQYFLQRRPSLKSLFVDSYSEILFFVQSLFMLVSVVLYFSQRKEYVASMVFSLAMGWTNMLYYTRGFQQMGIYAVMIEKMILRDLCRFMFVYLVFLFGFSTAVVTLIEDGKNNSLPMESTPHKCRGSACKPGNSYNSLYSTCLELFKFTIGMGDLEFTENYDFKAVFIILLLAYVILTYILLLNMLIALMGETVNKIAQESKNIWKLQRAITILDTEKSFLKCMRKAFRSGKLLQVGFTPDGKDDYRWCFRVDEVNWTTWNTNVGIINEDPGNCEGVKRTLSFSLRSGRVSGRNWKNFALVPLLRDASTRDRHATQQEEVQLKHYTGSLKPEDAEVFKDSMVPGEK
T2 sequence (O35433 2-838 limits assumed): as above
T2 sequence (O35433 2-838 limits assumed): as above
T4 sequence (O35433 whole entry, stated change not applied): as the sequence (O35433 whole entry, the tested form may be a part) above
T4 sequence (O35433 2-838 Y511A limits assumed): as the sequence (O35433 2-838 limits assumed) above, with Y510A counted along it
T4 sequence (O35433 2-838 Y511A limits assumed): as the sequence (O35433 2-838 limits assumed) above, with Y510A counted along it
T4 sequence (O35433 2-838 Y511A limits assumed): as the sequence (O35433 2-838 limits assumed) above, with Y510A counted along it
T7 sequence (O35433 whole entry, stated change not applied): as the sequence (O35433 whole entry, the tested form may be a part) above
T7 sequence (O35433 2-838 Y511A limits assumed): as the sequence (O35433 2-838 limits assumed) above, with Y510A counted along it
T7 sequence (O35433 2-838 Y511A limits assumed): as the sequence (O35433 2-838 limits assumed) above, with Y510A counted along it
T7 sequence (O35433 2-838 Y511A limits assumed): as the sequence (O35433 2-838 limits assumed) above, with Y510A counted along it
T6 sequence (O35433 whole entry): as the sequence (O35433 whole entry, the tested form may be a part) above
T3 sequence (O35433 whole entry Y511A): as the sequence (O35433 whole entry, the tested form may be a part) above, with Y511A counted along it
T3 sequence (O35433 2-838 Y511A limits assumed): as the sequence (O35433 2-838 limits assumed) above, with Y510A counted along it
T3 sequence (O35433 2-838 Y511A limits assumed): as the sequence (O35433 2-838 limits assumed) above, with Y510A counted along it
T3 sequence (O35433 2-838 Y511A limits assumed): as the sequence (O35433 2-838 limits assumed) above, with Y510A counted along it
T5 sequence (O35433 whole entry, stated change not applied): as the sequence (O35433 whole entry, the tested form may be a part) above
T5 sequence (O35433 2-838 limits assumed, stated change not applied): as the sequence (O35433 2-838 limits assumed) above
T5 sequence (O35433 2-838 limits assumed, stated change not applied): as the sequence (O35433 2-838 limits assumed) above
T5 sequence (O35433 2-838 Y511A limits assumed): as the sequence (O35433 2-838 limits assumed) above, with Y510A counted along it
T1 sequence (O35433 whole entry, stated change not applied): as the sequence (O35433 whole entry, the tested form may be a part) above
T1 sequence (O35433 2-838 limits assumed, stated change not applied): as the sequence (O35433 2-838 limits assumed) above
T1 sequence (O35433 2-838 Y511A limits assumed): as the sequence (O35433 2-838 limits assumed) above, with Y510A counted along it
T1 sequence (O35433 2-838 Y511A limits assumed): as the sequence (O35433 2-838 limits assumed) above, with Y510A counted along it
T8 sequence (O35433 whole entry E600Q/E648A): as the sequence (O35433 whole entry, the tested form may be a part) above, with E600Q, E648A counted along it
T8 sequence (O35433 2-838 E600Q/E648A limits assumed): as the sequence (O35433 2-838 limits assumed) above, with E599Q, E647A counted along it
T8 sequence (O35433 2-838 E600Q/E648A limits assumed): as the sequence (O35433 2-838 limits assumed) above, with E599Q, E647A counted along it
T8 sequence (O35433 2-838 E600Q/E648A limits assumed): as the sequence (O35433 2-838 limits assumed) above, with E599Q, E647A counted along it

Turning to `COc1cc(CNC(=O)CCCC/C=C/C(C)C)ccc1O` [capsaicin], in [1], the “Hill coefficient nH for capsaicin, 2wt/2ya” value is on record as 1.2. Also, in experiment [2], the “capsaicin concentration required to achieve full TRPV1 activation, 4wt” value stood at 2 µM. Moreover, in [2] (setting [11]), the “open probability, 4wt” value is on record as 0.89 ± 0.10; the “single-channel average amplitude, 4wt” value came out at 5.2 ± 0.4 pA; the “unitary conductance, 4wt” value is 86 ± 3 pS. Moreover, in [3] (capsaicin 1 μM, +80 mV), the “average current amplitude ICAP+80mV (±SEM), HEK293T, 4wt” value is listed as 7.8 ± 1.8 nA. In addition, in experiment [3] (whole-cell, −40 mV), the “Hill coefficient nH for capsaicin, 4wt” value is 1.4. The “average current amplitude ICAP+80mV (±SEM), oocytes, 4wt” value in [4] came out at 4.7 ± 0.2 μA. Further, the “response of 4ya construct to capsaicin” value in [5] was “insensitive; also recorded: nearly eliminated”. On rTRPV1 concatemer wt/3ya (2 μM capsaicin), the “single-channel average amplitude, wt/3ya” value is 4.8 ± 0.5 pA and the “unitary conductance, wt/3ya” value was found to be 80 ± 5 pS. At rTRPV1 concatemer wt/3ya (30 μM capsaicin), the “single-channel average amplitude, wt/3ya” value was determined as 4.9 ± 0.4 pA and the “unitary conductance, wt/3ya” value is listed as 82 ± 3 pS. Also, the “capsaicin concentration required to achieve full TRPV1 activation, wt/3ya” value at rTRPV1 concatemer wt/3ya (single functional VBS) was 30 µM. The “Hill coefficient nH for capsaicin, 3wt/ya” value in [6] is listed as 1.1. Moreover, the “average current amplitude ICAP+80mV (±SEM), oocytes, wt” value on rTRPV1 (wt) [7] is recorded as 5.6 ± 0.3 μA. On rTRPV1 (wt) [8] (capsaicin 1 μM, +80 mV), the “average current amplitude ICAP+80mV (±SEM), HEK293T, wt” value came out at 8.3 ± 1.2 nA. The “Hill coefficient nH for capsaicin, wt” value at rTRPV1 (wt) [8] (whole-cell, −40 mV) was 1.3. For the same molecule, in [9] (capsaicin 100 μM, whole-cell voltage ramps −80 to +80 mV), the “response of wt/3ya construct to capsaicin” value is “robust outward-rectifying current; also recorded: robust capsaicin response”. Further, the “Hill coefficient nH for capsaicin, wt/3ya” value in experiment [9] (whole-cell, −40 mV) amounted to 1.1. Besides, in experiment [10], the “capsaicin response, 4qa vs 4wt” value is recorded as “unaffected”.
